This is an account of results in patent publication US9481673B2, “6-alkynyl-pyridine derivatives” (Boehringer Ingelheim International GmbH, priority 2014, dated 2016).

In brackets after ≈: the same amount, converted by molar mass. A value given as a limit tells only on which side of the number the result lay.

The target in data set [1] is P450 2C9 (Homo sapiens (Human), UniProt P11712). As to the kind of experiment: Cytochrome P450 isoenzyme inhibition assay, hydroxylation of Diclofenac. It is filed as in vitro ADME.
For data set [2], the target named is P450 2C19 (Homo sapiens (Human), UniProt P33261). As to the kind of experiment: Cytochrome P450 isoenzyme inhibition assay, hydroxylation of Mephenytoin. It is filed as in vitro ADME.
In data set [3] the target is P450 3A4 (Homo sapiens (Human), UniProt P08684). As to the kind of experiment: Cytochrome P450 isoenzyme inhibition assay, hydroxylation of Midazolam. It is filed as in vitro ADME.
In data set [4] the target is P450 2D6 (Homo sapiens (Human), UniProt P10635). The experiment in a line: Cytochrome P450 isoenzyme inhibition assay, demethylation of Dextromethorphan. It is filed as in vitro ADME.
The nature of data set [5]: Solubility measurement (DMSO solution precipitation method). The format is physicochemical. The following applies: aqueous buffer, kinetic from dmso stock; for solubility at 24 h: McIlvaine buffer, measured examples from WO 2013/127729 (Table 1), pH 6.8.
For data set [6], the target named is P450 2C8 (Homo sapiens (Human), UniProt P10632). As to the kind of experiment: Cytochrome P450 isoenzyme inhibition assay, deethylation of Amodiaquine. The format is in vitro ADME.
Data set [7] concerns the target cIAP1 BIR3 (Homo sapiens (Human), UniProt Q13490). As to the kind of experiment: cIAP1 BIR3 binding assay (DELFIA), BIR3-SMAC peptide interaction. The following applies: (S)-isomers; BIR3 domain 10 nM, SMAC peptide 10 nM; read-out: cIAP1 BIR-3 IC50.
[8] abbreviates: measured examples from WO 2013/127729 (Table 1).
[9] abbreviates: (S)-isomers, human liver microsomes, 37° C.

On to `CNC(C)C(=O)Nc1ccc(-c2c(-c3ccncc3)nc3cc(C)ccn23)c(C#Cc2ccccc2)n1` (centres unmarked) [Ex 185, reference compound], for which the IC50 is 4.8 µM in data set [1] (setting [8]); 16 µM in data set [2] (setting [8]); 3 µM in data set [3] (setting [8]); 2.7 µM in data set [4] (setting [8]); 1.7 µM in data set [6] (setting [8]). The amount in solution in data set [5] (solubility at 24 h) came to 60 µg/mL (≈ 123 µM).

For the compound `CNC(C)C(=O)Nc1ccc(-c2c(-c3ccncc3)nc3cc(C)ccn23)c(C#Cc2ccc3c(ccc(=O)n3C)c2)n1` (centres unmarked) [Ex 81, reference compound], the IC50 in data set [1] (setting [8]) turned out to be 0.9 µM; in data set [2] (setting [8]) it was 2.8 µM; in data set [3] (setting [8]) it was 4 µM; in data set [4] (setting [8]) it was 3.4 µM; in data set [6] (setting [8]), 1.2 µM. Moreover, the concentration in solution in data set [5] (solubility at 24 h) was 8 µg/mL (≈ 14.1 µM).

As to `CN[C@@H](C)C(=O)Nc1ccc(-c2c(-c3ccnc(C)c3)nc3cc(C)ccn23)c(C#Cc2ccc3c(C)nccc3c2)n1` [(S)-2, (2S)-N-{5-[7-methyl-2-(2-methylpyridin-4-yl)imidazo[1,2-a]-pyridin-3-yl]-6-[2-(1-methylisoquinolin-6-yl)ethynyl]pyridin-2-yl}-2-(methylamino)-propanamide], the half-inhibitory concentration (IC50) in data set [1] (setting [9]) is above 50 µM; in data set [2] (setting [9]), 1.9 µM; in data set [3] (setting [9]) it was above 50 µM; in data set [4] (setting [9]) it was above 50 µM; in data set [7] it was 0.001 µM; in data set [6] (setting [9]), 0.9 µM. In addition, the solubility kinetic at 24 h in data set [5] ((S)-isomers, McIlvaine buffer pH 6.8, 24 h shaking at ambient temperature, read-out: Sol pH 6.8) was determined as 8 µg/mL (≈ 14.1 µM).

Take `CNC(C)C(=O)Nc1ccc(-c2c(-c3ccncc3)nc3cc(C)ccn23)c(C#Cc2ccc(-c3ccon3)cc2)n1` (centres unmarked) [Ex 82, reference compound]: the IC50 was 0.4 µM in data set [1] (setting [8]); 4.8 µM in data set [2] (setting [8]); 2.3 µM in data set [3] (setting [8]); 2.2 µM in data set [4] (setting [8]); 0.3 µM in data set [6] (setting [8]).

Consider `CNC(C)C(=O)Nc1ccc(-c2c(-c3ccncc3)nc3cc(C)ccn23)c(C#Cc2ccc3c(c2)OCC(=O)N3C)n1` (centres unmarked) [Ex 94, reference compound], for which the IC50 was 0.7 µM in data set [1] (setting [8]); 2.9 µM in data set [2] (setting [8]); above 50 µM in data set [3] (setting [8]); 3.3 µM in data set [4] (setting [8]); 4.9 µM in data set [6] (setting [8]).
